Data taken from US20060205692A1, “1,1-and 1,2-Bisphosphonates as apoliprotein e modulators” (priority 2002, published 2006).

Tested on: ApoE
Assay: apoE secretion by PMA-differentiated THP-1 cells, apoE quantified by ELISA
Format: cell-based, human
Conditions: 3 days; for percent change in apoE secretion versus control at 25 µM / percent change in apoE secretion versus control at 50 µM / percent change in apoE secretion versus control at 100 µM: Homo sapiens, THP-1, 72 h
Text: The bisphosphonate compounds of the invention can modulate (increase or decrease) apoE levels in plasma and in tissues. The activities of the compounds can be determined in an in vitro cell assay comprising determining the modulatory effect of the test compound on the secretion of apoE by an apoE secreting cell line (e.g., a monocyte-macrophage cell line such as the THP-1 cell line, a liver derived cell line such as the HepG2 cell line, an intestinal derived cell line such as the CaCo2 cell line or a brain derived cell line such as the astrocytoma CCF-STTG1 cell line).
THP-1 cell line (ATCC TIB-202) are cultured in RPMI 1640 (with 2 mM of L-glutamine and 2 g/l of glucose, Invitrogen) supplemented with 2 g/l of sodium hydrogen carbonate (Fluka), 10 U/ml of penicillin, 10 μg/ml of streptomycin (Penicillin-Streptomycin, Invitrogen), 20 μM of 2-mercaptoethanol (Fluka) and 10% FCS (Amimed). Cells are incubated at 37° C. and 5% CO2.
Cells are seeded in 24 well tissue culture plates (Falcon), 2×10^5 cells in 500 μl of culture medium per well or 6 well plates for RT-PCR purpose, 1×10^6 cells in 2.5 ml of medium. PMA (Phorbol 12-myristate 13-acetate, Alexis), (stock in DMSO (Fluka) at 1 mg/ml) and other compounds are diluted in ethanol and added to the cells at an ethanol final concentration not exceeding 1%. Same volume of ethanol is added in controls. Plates are incubated for 3 days at 37° C. and 5% CO2 to allow cell differentiation and apoE secretion.
Medium contained in the wells is harvested and centrifuged 5 min at 1200 rpm. Supernatants are store at −20° C. until apoE quantification. The cell pellets are resuspended in PBS and counted with a ZI Coulter Counter. After a wash with PBS, adherent cells in the well bottoms are detached with trypsin-EDTA solution 10× (Invitrogen) diluted in PBS. The reaction is stopped with the addition of culture medium and the detached cells are counted.
ApoE was quantified by ELISA. 96 well plates (Costar) are coated with 5% of gelatine (from porcine skin, Fluka) in carbonate-bicarbonate buffer (Sigma) for 1 hour at 37° C. After removing the coating solution, 100 μl of THP-1 supernatant are added per well, diluted 5 times in buffer (PBS, 1% Top-Block (Juro), 0.1% Tween 20 (Fluka)). The incubation last 1 hour at 37° C., then the wells are washed 3 times with 200 μl of buffer. Plates are incubated for 1 hour at 37° C. with continuous stirring with the primary antibody (goat anti-human apoE IgG, Calbiochem) at a 10000-time dilution in buffer, 100 μl per well. After 3 washes, plates are incubated with the secondary antibody (rabbit anti-goat-IgG peroxidase conjugated, Sigma) diluted 5000 times, 100 μl per well, at 37° C. with shaking. Then the wells are washed 5 more times and the detection is achieved by adding 100 μl per well of o-phenylenediamine dihydrochloride (Sigma) and incubated for 15-20 minutes with shaking at room temperature. When the appropriated colour is reached, the reaction is stopped by adding 50 μl per well of 3 M sulfuric acid (Fluka) with shaking for 1 minute at room temperature. The absorbance is read at 492 nm versus 620 nm with a microplate photometer (Anthos Reader 2001).

SMILES	% ApoE Change (compound 25 μM, 1.25 nM PMA) [%]	% ApoE Change (compound 25 μM, 2.5 nM PMA) [%]	% ApoE Change (compound 50 μM, 1.25 nM PMA) [%]	% ApoE Change (compound 50 μM, 2.5 nM PMA) [%]	% ApoE Change (compound 100 μM, 1.25 nM PMA) [%]	% ApoE Change (compound 100 μM, 2.5 nM PMA) [%]	percent change in apoE secretion versus control at 25 µM (compound 25 μM, 2.5 nM PMA) [%]	percent change in apoE secretion versus control at 50 µM (compound 50 μM, 2.5 nM PMA) [%]	also measured
CCOP(=O)(OCC)C(c1ccc(OC/C=C(\C)CC/C=C(\C)CCC=C(C)C)cc1)P(=O)(OCC)OCC [Tetraethyl 1-[4-(trans, trans-3,7,11-trimethyl-dodeca-2,6,10-trienyloxy)-phenyl]-methylidene-1,1-bisphosphonate]									% ApoE Change (compound 2.5 μM, 1.25 nM PMA): 14%; % ApoE Change (compound 2.5 μM, 2.5 nM PMA): 27%; % ApoE Change (compound 5.0 μM, 1.25 nM PMA): 46%; % ApoE Change (compound 5.0 μM, 2.5 nM PMA): 47%; % ApoE Change (compound 10 μM, 1.25 nM PMA): 31%; % ApoE Change (compound 10 μM, 2.5 nM PMA): 40%
CCOc1ccc(C(CP(=O)(OCC)OCC)P(=O)(OCC)OCC)cc1 (stereo not drawn) [Tetraethyl 1-(4-ethoxyphenyl)-ethylidene-1,2-bisphosphonate]	−16	5	−12	4	36	54			
CCOP(=O)(CC(c1ccc(OCc2ccccn2)cc1)P(=O)(OCC)OCC)OCC (stereo not drawn) [Tetraethyl 1-[4-(pyridin-2-yl-methoxy)-phenyl]-ethylidene-1,2-bisphosphonate]		152		158		289			
CCOP(=O)(OCC)C(c1ccc(OCc2ccc(C#N)cc2)cc1)P(=O)(OCC)OCC [Tetraethyl 1-[4-(4-cyano-benzyloxy)-phenyl]-methylidene-1,1-bisphosphonate]	91	134	192	225	447	328			
CCOP(=O)(OCC)C(c1ccc(OCCc2ccccn2)cc1)P(=O)(OCC)OCC [Tetraethyl 1-[4-(2-pyridin-2-yl-ethoxy)-phenyl]-methylidene-1,1-bisphosphonate]	57	38	133	73	363	145			
CCOP(=O)(OCC)C(c1ccc(OCCN2CCOCC2)cc1)P(=O)(OCC)OCC [Tetraethyl 1-[4-(2-N-morpholino-ethoxy)-phenyl]-methylidene-1,1-bisphosphonate]	−17	−20	−8	−27	43	−3			
CCOP(=O)(OCC)C(c1ccc(OCCCN(C)c2ccccn2)cc1)P(=O)(OCC)OCC [Tetraethyl 1-{4-[3-(methyl-pyridin-2-yl-amino)-propoxy]-phenyl}-methylidene-1,1-bisphosphonate]							557		percent change in apoE secretion versus control at 25 µM (compound 25 μM, 1.25 nM PMA): 375%
CCOP(=O)(CC(c1cccc(OCCc2ccccn2)c1)P(=O)(OCC)OCC)OCC (stereo not drawn) [Tetraethyl 1-[3-(2-pyridin-2-yl-ethoxy)-phenyl]-ethylidene-1,2-bisphosphonate]							110	124	percent change in apoE secretion versus control at 25 µM (compound 25 μM, 1.25 nM PMA): 31%; percent change in apoE secretion versus control at 50 µM (compound 50 μM, 1.25 nM PMA): 51%; percent change in apoE secretion versus control at 100 µM (compound 100 μM, 1.25 nM PMA): 274%; percent change in apoE secretion versus control at 100 µM (compound 100 μM, 2.5 nM PMA): 206%
CCOP(=O)(CC(c1ccc(OCCCN2C(=O)c3ccccc3C2=O)cc1)P(=O)(OCC)OCC)OCC (stereo not drawn) [Tetraethyl 1-[4-(3-N-phthalimidopropoxy)phenyl]-ethylidene-1,2-bisphosphonate]							644	942	
CCOP(=O)(OCC)C(c1ccc(OCCCc2cccnc2)cc1)P(=O)(OCC)OCC [Tetraethyl 1-[4-(3-pyridin-3-yl-propoxy)-phenyl]-methylidene-1,1-bisphosphonate]	63	136	103	188	337	331			
CCOP(=O)(OCC)C(c1ccc(OCCCN2C(=O)c3ccccc3C2=O)cc1)P(=O)(OCC)OCC [Tetraethyl 1-[4-(3-N-phthalimido-propoxy)-phenyl]-methylidene-1,1-bisphosphonate]							352	405	percent change in apoE secretion versus control at 100 µM (compound 100 μM, 2.5 nM PMA): 482%
CCOP(=O)(OCC)C(c1ccc(OCCCO)cc1)P(=O)(OCC)OCC [Tetraethyl 1-[4(3-hydroxy-propoxy)-phenyl]-methylidene-1,1-bisphosphonate]							-15	-16	percent change in apoE secretion versus control at 25 µM (compound 25 μM, 1.25 nM PMA): -27%; percent change in apoE secretion versus control at 50 µM (compound 50 μM, 1.25 nM PMA): -21%; percent change in apoE secretion versus control at 100 µM (compound 100 μM, 1.25 nM PMA): 20%; percent change in apoE secretion versus control at 100 µM (compound 100 μM, 2.5 nM PMA): 0%
CCOP(=O)(OCC)C(c1ccc(OCCN2C(=O)CCC2=O)cc1)P(=O)(OCC)OCC [Tetraethyl 1-[4-(2-N-succinimido-ethoxy)-phenyl]-methylidene-1,1-bisphosphonate]	−51	30	53	70	123	132			
CCOP(=O)(OCC)C(c1ccc(OCCN2CCCCC2)cc1)P(=O)(OCC)OCC [Tetraethyl 1-[4-(2-N-piperidino-ethoxy)-phenyl]-methylidene-1,1-bisphosphonate]	−22	−2	6	0	65	33			
CCOP(=O)(OCC)C(c1ccc(OCCN2CCCC2)cc1)P(=O)(OCC)OCC [Tetraethyl 1-[4-(2-N-pyrrolidino-ethoxy)-phenyl]-methylidene-1,1-bisphosphonate]	−5	2	2	7	56	32			
CCOP(=O)(OCC)C(c1ccc(OCCN(CCC#N)c2ccccc2)cc1)P(=O)(OCC)OCC [Tetraethyl 1-(4-{2-[(2-cyano-ethyl)-phenyl-amino]-ethoxy}-phenyl)-methylidene-1,1-bisphosphonate]							209	311	percent change in apoE secretion versus control at 25 µM (compound 25 μM, 1.25 nM PMA): 276%; percent change in apoE secretion versus control at 50 µM (compound 50 μM, 1.25 nM PMA): 678%; percent change in apoE secretion versus control at 100 µM (compound 100 μM, 2.5 nM PMA): 499%
CCOP(=O)(OCC)C(c1ccc(OCc2ccccn2)cc1)P(=O)(OCC)OCC [Tetraethyl 1-[4-(pyridin-2-yl-methoxy)-phenyl]-methylidene-1,1-bisphosphonate]	16	96	146	192	443	574			
CCOP(=O)(OCC)C(c1ccc(O)cc1)P(=O)(OCC)OCC [Tetraethyl 1-(4-hydroxy-phenyl)-methylidene-1,1-bisphosphonate]							-3	-9	percent change in apoE secretion versus control at 25 µM (compound 25 μM, 1.25 nM PMA): -13%; percent change in apoE secretion versus control at 50 µM (compound 50 μM, 1.25 nM PMA): 26%; percent change in apoE secretion versus control at 100 µM (compound 100 μM, 1.25 nM PMA): 125%; percent change in apoE secretion versus control at 100 µM (compound 100 μM, 2.5 nM PMA): 60%
